Read-outs that look alike come from different tables or passages of the source.
Columns and labels:
Candida species = assay: Phase 2a dose-ranging study in moderate-to-severe acute VVC, effective therapeutic cure; format: in vivo, human; conditions: Per Protocol population
Procedure: Oteseconazole has previously been evaluated in a Phase 2a multi-center, randomized, double-blind, active-controlled, parallel-group, dose-ranging study in patients with moderate-to-severe acute VVC. A total of 55 subjects with moderate-to-severe acute VVC (severity score ≥6 and a positive fungal KOH test) participated in the study across 4 dose groups: 1) oteseconazole 300 mg qd for 3 days: 2) 600 mg qd for 3 days: 3) 600 mg bid for 3 days; or 4) a single dose of fluconazole 150 mg followed by matching placebo. […] No safety signals of clinical concern were observed from the safety assessments.
The efficacy of oteseconazole in the treatment of moderate-to-severe acute VVC was evaluated at the TOC visit in the Per Protocol population at the Day 28 test of cure (TOC) visit was, 87%, 86%, 86%, and 75% of subjects receiving the low, mid-, or high-dose oteseconazole or comparator arm of fluconazole, respectively, achieved an effective therapeutic cure (defined as having a total clinical signs and symptoms severity score of ≤1 and a negative culture for Candida species) in the Per Protocol population

Study CL-004 plasma PK = format: in vivo, human; conditions: for concentration at 24 h / concentration at 168 day / half-life / Tmax / Cmax / AUC(0-t): human, plasma; for concentration at 24 h: read-out: predicted minimum concentration (Cmin) at 24 hours after the final Day 3 dose; for half-life: read-out: median t1/2 (converted); for Tmax: read-out: median Tmax; for AUC(0-t): read-out: AUC0-8
Procedure: The ty, values were estimated on the basis of blood sampling that was carried out between approximately 7 and 168 days after administration of the first dose. […] The oteseconazole concentrations on Day 168 remained measurable (127, 409, and 1300 ng/mL for the 300 mg QD, 600 mg QD, and 600 mg BID treatment groups, respectively) and remained at or above therapeutic concentrations for the 600 mg QD and 600 mg BID treatment groups.
Based on the calculated Cmin values, only about 50% of the target was met for the 300 mg QD and 600 mg QD treatment groups, with the 600 mg BID treatment group reaching the target anticipated for the 600 mg QD group.

Study CL-006 plasma PK = format: in vivo, human; conditions: for AUC(0-t): read-out: AUC0-8
Text: Oteseconazole plasma concentrations continued to increase after the 7-day loading dose portion of the Maintenance Period until the end of dosing in an approximately dose-proportional manner FIG. 3.
Mean plasma PK parameters on Day 7 of the Maintenance Period are presented by treatment group in Table 12.

[1] = Study CL-007 DDI and PKE cohorts, plasma PK; format: in vivo; set-up: AUC(0-t) / AUC(0-inf): concentration or dose not given beside the values; conditions: human; for AUC(0-t): read-out: AUC0-24
Procedure: The median Tmax was 4.0 hours on Day 3 and 6.0 hours on Day 16. […] The increase in oteseconazole concentrations after 14 days of daily dosing was expected based on the long half-life of oteseconazole and are a consequence of accumulation and not of concomitant administration of midazolam.
The geometric mean AUC0-24 was 26120 h*ng/ml and the geometric mean AUC0-∞ was 57290 h*ng/mL. These values were consistent with the oteseconazole plasma PK parameters calculated on Day 3 in the DDI cohort.

Study CL-017 plasma PK = format: in vivo, human; conditions: for Tmax: Median
Procedure: Oteseconazole mean (SD) plasma concentration during the intense PK sampling period on Day 1 peaked at 4 hours postdose (1425.8 [672.05] μg/L) and decreased slightly by 8 hours postdose (1301.06 [782.76] μg/L). On Day 2, mean (SD) oteseconazole plasma concentrations were 697.7 (264.40) μg/L at predose, then increased to 1895.0 (640.00) μg/L at 4 hours postdose, and decreased to 1555.6 (392.68) μg/L by 8 hours postdose (FIG. 6).
Over the period of Day 14 to Week 50, oteseconazole plasma concentrations were measured at Day 14, Week 14 (end of dosing), and Week 50 (end of follow-up period). Oteseconazole mean (SD) plasma concentration increased from 1396.9 (709.00) μg/L at Day 14 to 2679.3 (1318.94) μg/L at Week 14 before decreasing to 873.4 (534.49) μg/L at Week 50 (FIG. 7).
Median Tmax occurred at 4.00 hours on Day 2; however, Tmax occurred in a narrower range (2.00 to 8.00 hours) compared with that observed on Day 1. The AUC0-8 was 7570 h*μg/L and 11700 h*μg/L, for Day 1 and Day 2, respectively (Table 17).

[2] = 300 mg, 300 mg QD treatment group
[3] = 600 mg, 600 mg BID treatment group
[4] = 600 mg, 600 mg QD treatment group
[5] = human, plasma, 150 mg, Day 7, 150 mg, 12 weeks
[6] = human, plasma, 150 mg, Day 7, 150 mg, 24 weeks
[7] = human, plasma, 300 mg, Day 7, 300 mg, 12 weeks
[8] = human, plasma, 300 mg, Day 7, 300 mg, 24 weeks
[9] = DDI Cohort, Day 3, geometric mean
[10] = DDI Cohort, Day 16, geometric mean
[11] = PKE Cohort, Day 1, geometric mean

share of target Cmin met (Study CL-004 plasma PK; 300 mg QD and 600 mg QD treatment groups): about 50%
concentration at 24 h (Study CL-004 plasma PK; 300 mg, 300 mg QD dose group): 705 ng/mL
concentration at 168 day (Study CL-004 plasma PK; [2]): 127 ng/mL
half-life (Study CL-004 plasma PK; [2]): 75.9 days
concentration at 24 h (Study CL-004 plasma PK; 600 mg, 600 mg BID dose group): 2830 ng/mL
concentration at 168 day (Study CL-004 plasma PK; [3]): 1300 ng/mL
half-life (Study CL-004 plasma PK; [3]): 160 days
concentration at 24 h (Study CL-004 plasma PK; 600 mg, 600 mg QD dose group): 1000 ng/mL
concentration at 168 day (Study CL-004 plasma PK; [4]): 409 ng/mL
half-life (Study CL-004 plasma PK; [4]): 133 days
Tmax (Study CL-004 plasma PK; 300 mg dose): 4 h
Tmax (Study CL-004 plasma PK; 600 mg dose): 5.5 h
Cmax (Study CL-004 plasma PK; Day 1, 300 mg dose): 407 ng/mL
AUC(0-t) (Study CL-004 plasma PK; Day 1, 300 mg dose): 1.87 µg·h/mL
Cmax (Study CL-004 plasma PK; Day 1, 600 mg dose): 968 ng/mL
AUC(0-t) (Study CL-004 plasma PK; Day 1, 600 mg dose): 4.23 µg·h/mL
Tmax (Study CL-006 plasma PK; Day 7, 150 mg, 24 weeks): 4.93 h
Tmax (Study CL-006 plasma PK; Day 7, 300 mg, 12 weeks): 4.92 h
Cmax (Study CL-006 plasma PK; [5]): 1340 ng/mL
AUC(0-t) (Study CL-006 plasma PK; [5]): 9.12 µg·h/mL
Cmax (Study CL-006 plasma PK; [6]): 1800 ng/mL
AUC(0-t) (Study CL-006 plasma PK; [6]): 12.3 µg·h/mL
Cmax (Study CL-006 plasma PK; [7]): 2750 ng/mL
AUC(0-t) (Study CL-006 plasma PK; [7]): 20.5 µg·h/mL
Cmax (Study CL-006 plasma PK; [8]): 3120 ng/mL
AUC(0-t) (Study CL-006 plasma PK; [8]): 21.6 µg·h/mL
concentration at 48 week (Study CL-006 plasma PK; human, plasma, 150 mg oteseconazole): 2150 ng/mL
concentration at 48 week (Study CL-006 plasma PK; human, plasma, 300 mg oteseconazole): 5090 ng/mL
Tmax (Study CL-006 plasma PK; human, plasma, Day 7, 150 mg, 12 weeks, read-out: Tmax): 4 h
half-life (Study CL-006 plasma PK; human, plasma, calculated using a population PK approach): ~171 days
AUC(0-inf) [1, 9]: 49.4 µg·h/mL
Cmax [1, 9]: 1910 ng/mL
AUC(0-t) [1, 9]: 24.6 µg·h/mL
Tmax ([1]; DDI Cohort, Day 3, median): 4 h
AUC(0-inf) [1, 10]: 4880 µg·h/mL
Cmax [1, 10]: 11600 ng/mL
AUC(0-t) [1, 10]: 243 µg·h/mL
Tmax ([1]; DDI Cohort, Day 16, median): 6 h
AUC(0-inf) [1, 11]: 57.3 µg·h/mL
Cmax [1, 11]: 1900 ng/mL
AUC(0-t) [1, 11]: 26.1 µg·h/mL
Tmax ([1]; PKE Cohort, Day 1, median): 6 h
Clast (Study CL-017 plasma PK; 3 × 150 mg (450 mg), Day 2, Geometric Mean): 1510 ng/mL
AUC(0-t) (Study CL-017 plasma PK; human, plasma, oral, 450 mg, 3 × 150 mg (450 mg), Day 2, Geometric Mean, read-out: AUC0-8): 11.7 µg·h/mL
concentration at 4 h (Study CL-017 plasma PK; human, plasma, oral, 450 mg, Day 2, 4 hours postdose, read-out: mean (SD) plasma concentration): 1900 ng/mL
concentration at 8 h (Study CL-017 plasma PK; human, plasma, oral, 450 mg, Day 2, 8 hours postdose, read-out: mean (SD) plasma concentration): 1560 ng/mL
AUC(0-t) (Study CL-017 plasma PK; human, plasma, oral, 450 mg, Day 2, as given in text, read-out: AUC0-8): 11.7 µg·h/mL
AUC(0-t) (Study CL-017 plasma PK; human, plasma, oral, 600 mg, 600 mg dose on Day 1, as given in text, read-out: AUC0-24): 20.6 µg·h/mL
AUC(0-t) (Study CL-017 plasma PK; human, plasma, oral, 600 mg, 4 × 150 mg (600 mg), Day 1, Geometric Mean, N 8, read-out: AUC0-24): 20.6 µg·h/mL
AUC(0-t) (Study CL-017 plasma PK; human, plasma, oral, 600 mg, 4 × 150 mg (600 mg), Day 1, Geometric Mean, read-out: AUC0-8): 7.57 µg·h/mL
concentration at 24 h (Study CL-017 plasma PK; human, plasma, oral, 600 mg, 4 × 150 mg (600 mg), Day 1, Geometric Mean, read-out: Clast): 651 ng/mL
concentration at 24 h (Study CL-017 plasma PK; human, plasma, oral, 600 mg, 24 hours after 600 mg Day 1 dose (predose Day 2), read-out: plasma concentrations, range across subjects): 354 to 1150 ng/mL
concentration at 4 h (Study CL-017 plasma PK; human, plasma, oral, 600 mg, Day 1, 4 hours postdose, read-out: mean (SD) plasma concentration): 1430 ng/mL
concentration at 8 h (Study CL-017 plasma PK; human, plasma, oral, 600 mg, Day 1, 8 hours postdose, read-out: mean (SD) plasma concentration): 1300 ng/mL
AUC(0-t) (Study CL-017 plasma PK; human, plasma, oral, 600 mg, Day 1, as given in text, read-out: AUC0-8): 7.57 µg·h/mL
concentration at 24 h (Study CL-017 plasma PK; human, plasma, oral, 600 mg, Day 2, predose, read-out: mean (SD) plasma concentration): 698 ng/mL
concentration at 14 day (Study CL-017 plasma PK; human, plasma, oral, Day 14, read-out: mean (SD) plasma concentration): 1400 ng/mL
concentration at 14 week (Study CL-017 plasma PK; human, plasma, oral, Week 14 (end of dosing), read-out: mean (SD) plasma concentration): 2680 ng/mL
concentration at 50 week (Study CL-017 plasma PK; human, plasma, oral, Week 50 (end of follow-up period), read-out: mean (SD) plasma concentration): 873 ng/mL
Cmax (Study CL-017 plasma PK; human, plasma, oral, 3 × 150 mg (450 mg), Day 2, Geometric Mean): 2010 ng/mL
Tmax (Study CL-017 plasma PK; human, plasma, oral, 3 × 150 mg (450 mg), Day 2): 4 h
Cmax (Study CL-017 plasma PK; human, plasma, oral, 4 × 150 mg (600 mg), Day 1, Geometric Mean): 1620 ng/mL
Tmax (Study CL-017 plasma PK; human, plasma, oral, 4 × 150 mg (600 mg), Day 1): 4.01 h
SMILES: O[C@@](Cn1cnnn1)(c1ccc(F)cc1F)C(F)(F)c1ccc(-c2ccc(OCC(F)(F)F)cc2)cn1 [Oteseconazole, oteseconazole]
subjects achieving effective therapeutic cure at Day 28 TOC visit (Candida species; high dose, oteseconazole 600 mg bid for 3 days): 86%
subjects achieving effective therapeutic cure at Day 28 TOC visit (Candida species; low dose, oteseconazole 300 mg qd for 3 days): 87%
subjects achieving effective therapeutic cure at Day 28 TOC visit (Candida species; mid dose, oteseconazole 600 mg qd for 3 days): 86%

Source: patent US20240398773A1, “COMPOSITIONS COMPRISING OTESECONAZOLE” (Mycovia Pharmaceuticals, Inc., priority 2021, published 2024)
